Literature values, collected in patent US12433839B2, “Sustained release particle formulations” (Adare Pharmaceuticals USA, Inc., priority 2011, dated 2025).

Conditions: in vivo

typical plasma half-life: about one
Structure (SMILES): COc1ccccc1OCC(O)CO (stereo not shown) [guaifenesin]
